Laboratory results: patent publication EP0944596B1, “1-ACRYLOYLINDOLINE DERIVATIVES AND THEIR USE AS PRODRUGS OF ANTICANCER AGENTS” (Auckland Uniservices Limited, priority 1996, dated 1998)

Legend:
[1] = background statement, literature; cited from earlier work
[2] = test system: UV4 cells; assay: Growth inhibition (cytotoxicity) of UV4 cells, 18 h drug exposure, methylene blue staining; assay type: cell-based; conditions: Cricetulus griseus
Method: (§1) To evaluate the activity of a compound UV4 cells were maintained in exponential phase growth (doubling times 14 and 15 h respectively) using Alpha MEM containing fetal calf serum (10% v/v) without antibiotics, and were subcultured twice weekly by trypsinization. Bulk cultures were prepared for experiments by seeding cells in spinner flasks at 10^4 cells/mL in the above medium with addition of penicillin (100 IU/mL) and streptomycin (100 µg/mL). Cultures were initiated in 96-well microtiter trays to give 200 (AA8) or 300 (UV4) cells in 0.05 mL per well. After growth in a CO2 incubator for 24 h, drugs were added in culture medium, using serial two-fold dilutions to provide duplicate cultures at five different concentrations for each of eight drugs (plus eight controls) per tray. After 18 h drugs were removed by washing cultures three times with fresh medium, and the trays were incubated for a further 78 h. Cell density was then determined by staining with metbylene blue as described [Finlay, G.J.; Baguley, B.C.; Wilson, W.R. Anal. Biochem., 1984, 139: 272-277]. The IC50 was calculated as the drug concentration providing 50% inhibition of growth relative to the controls.
(§2) To evaluate the activation of the compound by E. coli nitroreductase 2 (NR2) the experiment was repeated but in addition purified E. coli nitroreductase enzyme (1 µg/mL) and NADH (1 mM, as cofactor) was added during the entire time of the incubation. As a comparison the experiment was also repeated but with the addition only of NADH and not NR2.
(§3) Where multiple determinations were carried out the IC50 is given as an average ± SEM. Where one determination only was carried out a single IC50 value is given.

[3] = test system: UV4 cells; assay: Activation by E. coli nitroreductase 2 (NR2): growth inhibition of UV4 cells with purified enzyme and NADH added; assay type: cell-based; conditions: for IC50: Cricetulus griseus, UV4 cells, purified E. coli nitroreductase enzyme (1 µg/mL) and NADH (1 mM) during the entire incubation, read-out: IC50 (nM) drug + NADH + NR2; for Ratio*: IC50 drug alone/IC50 drug + NADH + NR2, intra-experiment ratios, 1080 min
Method: as §1, §2, §3

[4] = 18 h exposure, then 78 h further incubation, average ± SEM where multiple determinations, read-out: IC50 (nM) drug alone
[5] = NADH (1 mM) added, no NR2, 18 h exposure, read-out: IC50 (nM) drug + NADH

**Q.** With `COc1c(O)c2c(c3cc(C(=O)N4CCc5c4c(O)c(OC)c4[nH]c(C(=O)N6CC7CC78C6=CC(=O)c6[nH]cc(C)c68)cc54)[nH]c13)CCN2C(N)=O` (stereo not drawn) [CC-1065] as the compound, how does the IC50 [1] read?
**A.** low pM range

**Q.** With `CCCC(=O)Nc1cc(/C=C/C(=O)N2CC(CCl)c3ccc([N+](=O)[O-])cc32)n(C)c1` (stereo not drawn) [Compound 7, 1-[(E)-3-(4-butyramido-1-methyl-2-pyrrole)acryloyl]-3-(chloromethyl)-6-nitroindoline] as the compound, how does the IC50 [2, 4] read?
**A.** 2940 ± 320 nM

**Q.** What about the IC50 [2, 5] of the same compound?
**A.** 1080 ± 340 nM

**Q.** And the IC50 [3]?
**A.** 43 ± 4 nM

**Q.** And the “Ratio*” value [3]?
**A.** 70±13

**Q.** With `CCCC(=O)Nc1cc(/C=C/C(=O)N2CC(CCl)c3ccc(N)cc32)n(C)c1` (stereo not drawn) [Compound 8, 6-amino-1-[(E)-3-(4-butyramido-1-methyl-2-pyrrole)acryloyl]-3-(chloromethyl)indoline] as the compound, how does the IC50 [2, 4] read?
**A.** 38 nM

**Q.** What about the IC50 [2, 5] of the same compound?
**A.** 24 nM

**Q.** What about the IC50 [3] of the same compound?
**A.** 35 nM

**Q.** And the “Ratio*” value [3]?
**A.** 1.1

**Q.** With `Cn1cccc1C(=O)Nc1cccc(/C=C/C(=O)N2CC(CCl)c3ccc([N+](=O)[O-])cc32)c1` (stereo not drawn) [Compound 12, 1-[(E)-3-(1-methylpyrrole-2-carboxamido)cinnamoyl]-3-chloromethyl-6-nitroindoline] as the compound, how does the IC50 [2, 4] read?
**A.** ~5000 nM

**Q.** What about the “Ratio*” value [3] of the same compound?
**A.** ca. 30

**Q.** Which IC50 [2, 4] does the source give for `CC(=O)Nc1cccc(/C=C/C(=O)N2CC(CCl)c3ccc([N+](=O)[O-])cc32)c1` (stereo not drawn) [Compound 13, 1-[(E)-3-(acetylamino)cinnamoyl]-3-chloromethyl-6-nitroindoline] here?
**A.** 335 nM

**Q.** What about the IC50 [2, 5] of the same compound?
**A.** 339 nM

**Q.** And the IC50 [3]?
**A.** 74 ± 23 nM

**Q.** What about the “Ratio*” value [3] of the same compound?
**A.** 3.5
